Assays:
Type in all cases: functional
[1] = Cytotoxicity against human NCI60 cells assessed as cell growth at 10 uM after 48 hrs by sulforhodamine B assay; conditions: NCI60, 48 h, read-out: Activity
[2] = Cytotoxicity against human NCI60 cells after 48 hrs by sulforhodamine B assay; conditions: NCI60, 48 h; for TGI: read-out: pTGI (converted)
CCRF-CEM = assay: Cytotoxicity against human CCRF-CEM cells after 48 hrs by sulforhodamine B assay
SR = assay: Cytotoxicity against human SR cells after 48 hrs by sulforhodamine B assay
HOP-92 = assay: Cytotoxicity against human HOP92 cells after 48 hrs by sulforhodamine B assay; conditions: HOP-92, 48 h; for TGI: read-out: pTGI (converted)
OVCAR-3 = assay: Cytotoxicity against human OVCAR-3 cells after 48 hrs by sulforhodamine B assay; conditions: OVCAR-3, 48 h; for CC50: read-out: pLC50 (the source's name) (converted); for TGI: read-out: pTGI (converted)
A498 = assay: Cytotoxicity against human A498 cells after 48 hrs by sulforhodamine B assay; conditions: A498, 48 h; for CC50: read-out: pLC50 (the source's name) (converted); for TGI: read-out: pTGI (converted)
RXF 393 = assay: Cytotoxicity against human RXF393 cells after 48 hrs by sulforhodamine B assay; conditions: RXF 393, 48 h
CAKI-1 = assay: Cytotoxicity against human Caki1 cells after 48 hrs by sulforhodamine B assay; conditions: CAKI-1, 48 h
T47D = assay: Cytotoxicity against human T47D cells after 48 hrs by sulforhodamine B assay
HCT-116 = assay: Cytotoxicity against human HCT116 cells after 48 hrs by sulforhodamine B assay; conditions: HCT-116, 48 h
786-0 = assay: Cytotoxicity against human 786-0 cells after 48 hrs by sulforhodamine B assay; conditions: 786-0, 48 h
HOP-62 = assay: Cytotoxicity against human HOP62 cells after 48 hrs by sulforhodamine B assay; conditions: HOP-62, 48 h
[3] = read-out: pLC50 (the source's name) (converted)

O=C(N/N=C/c1cccnc1)c1ccc(C(F)(F)F)nc1Nc1cccc(C(F)(F)F)c1
growth at 10 µM [1]: 70.3%

COc1ccc(Cl)cc1Nc1nc(C(F)(F)F)ccc1C(=O)N/N=C/c1ccncc1
growth at 10 µM [1]: 62.5%

Cc1cc(Cl)ccc1Nc1nc(C(F)(F)F)ccc1C(=O)N/N=C/c1ccc([N+](=O)[O-])cc1
growth at 10 µM [1]: -7.22% | TGI [2]: 4.68 µM | GI50 (CCRF-CEM): 0.0427 µM | TGI (CCRF-CEM; read-out: pTGI (converted)): 0.0776 µM

Cc1cc(Cl)ccc1Nc1nc(C(F)(F)F)ccc1C(=O)N/N=C/c1ccc(Cl)cc1Cl
growth at 10 µM [1]: 60.1%

Cc1ccc(Cl)cc1Nc1nc(C(F)(F)F)ccc1C(=O)N/N=C/c1ccc([N+](=O)[O-])cc1
growth at 10 µM [1]: 85.7%

Cc1ccc(Cl)cc1Nc1nc(C(F)(F)F)ccc1C(=O)N/N=C/c1ccc(N(C)C)cc1
growth at 10 µM [1]: 52.1%

O=C(N/N=C/c1ccc([N+](=O)[O-])cc1)c1ccc(C(F)(F)F)nc1Nc1cccc(C(F)(F)F)c1
growth at 10 µM [1]: 95.2%

Cc1cc(Cl)ccc1Nc1nc(C(F)(F)F)ccc1C(=O)N/N=C/c1ccc(F)cc1
growth at 10 µM [1]: 6.66% | TGI [2]: 7.08 µM

Cc1ccc(Cl)cc1Nc1nc(C(F)(F)F)ccc1C(=O)N/N=C/c1ccccc1Cl
growth at 10 µM [1]: 36.2%

COc1cc(/C=N/NC(=O)c2ccc(C(F)(F)F)nc2Nc2ccc(Cl)cc2C)ccc1O
growth at 10 µM [1]: 26.8% | TGI [2]: 10.5 µM

COc1cc(/C=N/NC(=O)c2ccc(C(F)(F)F)nc2Nc2ccc(Cl)cc2C)cc(OC)c1OC
growth at 10 µM [1]: 32.3%

Cc1ccc(Cl)cc1Nc1nc(C(F)(F)F)ccc1C(=O)N/N=C/c1cccc(O)c1
growth at 10 µM [1]: 90.1%

O=C(N/N=C/c1c(Cl)cccc1Cl)c1ccccc1Nc1cccc(C(F)(F)F)c1
growth at 10 µM [1]: 90.6%

Nc1nc(C(F)(F)F)ccc1C(=O)N/N=C/c1c(Cl)cccc1Cl
growth at 10 µM [1]: 102%

O=C(N/N=C/c1ccc(F)cc1)c1ccc(C(F)(F)F)nc1Nc1cccc(C(F)(F)F)c1
growth at 10 µM [1]: 7.73% | TGI [2]: 4.47 µM

Cc1cc(Cl)ccc1Nc1nc(C(F)(F)F)ccc1C(=O)NCC(=O)N/N=C/c1c(Cl)cccc1Cl
growth at 10 µM [1]: 68.1%

CN(C)c1ccc(/C=N/NC(=O)c2ccc(C(F)(F)F)nc2Nc2cccc(C(F)(F)F)c2)cc1
growth at 10 µM [1]: 60.2%

COc1ccc(Cl)cc1Nc1nc(C(F)(F)F)ccc1C(=O)N/N=C/c1ccc(F)cc1
growth at 10 µM [1]: 36.5%

Cc1ccc(Cl)cc1Nc1nc(C(F)(F)F)ccc1C(=O)N/N=C/c1ccncc1
growth at 10 µM [1]: 67.9%

Cc1cc(Cl)ccc1Nc1nc(C(F)(F)F)ccc1C(=O)N/N=C/c1ccc(Cl)cc1
growth at 10 µM [1]: -7.31% | TGI [2]: 7.59 µM

Cc1cc(Cl)ccc1Nc1nc(C(F)(F)F)ccc1C(=O)N/N=C/c1ccncc1
growth at 10 µM [1]: 54.2%

COc1cc(/C=N/NC(=O)c2ccc(C(F)(F)F)nc2Nc2cccc(C(F)(F)F)c2)ccc1O
growth at 10 µM [1]: 50.1%

O=C(N/N=C/c1ccccc1Cl)c1ccc(C(F)(F)F)nc1Nc1cccc(C(F)(F)F)c1
growth at 10 µM [1]: 34.2%

Cc1ccc(Cl)cc1Nc1nc(C(F)(F)F)ccc1C(=O)N/N=C/c1cccnc1
GI50 (SR): 0.0977 µM | growth at 10 µM [1]: 20.9% | TGI [2]: 12.6 µM

Cc1ccc(Cl)cc1Nc1nc(C(F)(F)F)ccc1C(=O)N/N=C/c1ccc(Cl)cc1
growth at 10 µM [1]: 0.47% | GI50 [2]: 1.48 µM | TGI [2]: 5.25 µM

O=C(N/N=C/c1c(Cl)cccc1Cl)c1ccc(C(F)(F)F)nc1Nc1cccc(C(F)(F)F)c1
GI50 (HOP-92): 0.0447 µM | TGI (HOP-92): 0.417 µM | growth at 10 µM [1]: 5.01% | TGI [2]: 10.2 µM | GI50 (OVCAR-3): 0.191 µM | CC50 (OVCAR-3): 77.6 µM | TGI (OVCAR-3): 0.646 µM | GI50 (A498): 0.191 µM | CC50 (A498): 9.33 µM | TGI (A498): 0.646 µM

Cc1ccc(Cl)cc1Nc1nc(C(F)(F)F)ccc1C(=O)N/N=C/c1ccc(Cl)cc1Cl
growth at 10 µM [1]: 62.6%

COc1ccc(Cl)cc1Nc1nc(C(F)(F)F)ccc1C(=O)N/N=C/c1ccc(N(C)C)cc1
growth at 10 µM [1]: 95.6%

O=C(N/N=C/c1ccc(Cl)cc1)c1ccc(C(F)(F)F)nc1Nc1cccc(C(F)(F)F)c1
GI50 (HOP-92): 0.0437 µM | CC50 (HOP-92; [3]): 20.9 µM | TGI (HOP-92): 0.589 µM | growth at 10 µM [1]: 9.64% | TGI [2]: 6.61 µM

COc1ccc(Cl)cc1Nc1nc(C(F)(F)F)ccc1C(=O)N/N=C/c1ccc([N+](=O)[O-])cc1
growth at 10 µM [1]: 0.92% | TGI [2]: 8.71 µM

COc1ccc(Cl)cc1Nc1nc(C(F)(F)F)ccc1C(=O)N/N=C/c1cccnc1
growth at 10 µM [1]: 44.7% | GI50 [2]: 2.95 µM | TGI [2]: 79.4 µM

COc1ccc(Cl)cc1Nc1nc(C(F)(F)F)ccc1C(=O)N/N=C/c1cc(OC)c(OC)c(OC)c1
growth at 10 µM [1]: 17.6% | TGI [2]: 10.5 µM

COc1ccc(Cl)cc1Nc1nc(C(F)(F)F)ccc1C(=O)N/N=C/c1cccc(O)c1
growth at 10 µM [1]: 59.1%

COc1ccc(Cl)cc1Nc1nc(C(F)(F)F)ccc1C(=O)N/N=C/c1ccc(Cl)cc1Cl
growth at 10 µM [1]: 72.1%

Cc1cc(Cl)ccc1Nc1nc(C(F)(F)F)ccc1C(=O)N/N=C/c1cccc(O)c1
GI50 (RXF 393): 0.195 µM | TGI (RXF 393; read-out: pTGI (converted)): 11.2 µM | GI50 (CAKI-1): 0.017 µM | CC50 (CAKI-1; [3]): 24 µM | TGI (CAKI-1; read-out: pTGI (converted)): 3.31 µM | growth at 10 µM [1]: 27.1% | TGI [2]: 11 µM | GI50 (T47D): 0.0355 µM | CC50 (T47D; [3]): 21.4 µM | TGI (T47D; read-out: pTGI (converted)): 2.14 µM

Cc1cc(Cl)ccc1Nc1nc(C(F)(F)F)ccc1C(=O)N/N=C/c1ccccc1Cl
growth at 10 µM [1]: 14.8% | TGI [2]: 5.13 µM | GI50 (OVCAR-3): 0.191 µM | CC50 (OVCAR-3): 8.32 µM | TGI (OVCAR-3): 0.513 µM | GI50 (A498): < 0.01 µM | CC50 (A498): 17.8 µM | TGI (A498): 2.69 µM

Cc1ccc(Cl)cc1Nc1nc(C(F)(F)F)ccc1C(=O)N/N=C/c1ccc(F)cc1
growth at 10 µM [1]: 33%

O=C(N/N=C/c1cccc(O)c1)c1ccc(C(F)(F)F)nc1Nc1cccc(C(F)(F)F)c1
growth at 10 µM [1]: 103%

Cc1ccc(Cl)cc1Nc1nc(C(F)(F)F)ccc1C(=O)N/N=C/c1c(Cl)cccc1Cl
GI50 (SR): 0.0562 µM | CC50 (SR; [3]): 41.7 µM | TGI (SR; read-out: pTGI (converted)): 2.69 µM | growth at 10 µM [1]: -3.82% | GI50 (HCT-116): 0.214 µM | CC50 (HCT-116; [3]): 3.31 µM | TGI (HCT-116; read-out: pTGI (converted)): 0.49 µM | GI50 (786-0): 0.251 µM | CC50 (786-0; [3]): 3.02 µM | TGI (786-0; read-out: pTGI (converted)): 0.603 µM | GI50 (HOP-62): 0.251 µM | CC50 (HOP-62; [3]): 5.75 µM | TGI (HOP-62; read-out: pTGI (converted)): 0.776 µM | TGI [2]: 6.17 µM

COc1cc(/C=N/NC(=O)c2ccc(C(F)(F)F)nc2Nc2cccc(C(F)(F)F)c2)cc(OC)c1OC
growth at 10 µM [1]: 44.5%

COc1cc(/C=N/NC(=O)c2ccc(C(F)(F)F)nc2Nc2cc(Cl)ccc2OC)ccc1O
growth at 10 µM [1]: 42.1%

Cc1cc(Cl)ccc1Nc1nc(C(F)(F)F)ccc1C(=O)N/N=C/c1cccnc1
growth at 10 µM [1]: 47.2%

O=C(N/N=C/c1ccc(Cl)cc1Cl)c1ccc(C(F)(F)F)nc1Nc1cccc(C(F)(F)F)c1
growth at 10 µM [1]: 66.3%

Cc1cc(Cl)ccc1Nc1nc(C(F)(F)F)ccc1C(=O)N/N=C/c1ccc(N(C)C)cc1
growth at 10 µM [1]: 23.2% | GI50 [2]: 1.7 µM | TGI [2]: 66.1 µM

COc1cc(/C=N/NC(=O)c2ccc(C(F)(F)F)nc2Nc2cc(Cl)ccc2C)ccc1O
growth at 10 µM [1]: 47.2%

O=C(N/N=C/c1ccncc1)c1ccc(C(F)(F)F)nc1Nc1cccc(C(F)(F)F)c1
growth at 10 µM [1]: 10.8% | TGI [2]: 8.71 µM

COc1cc(/C=N/NC(=O)c2ccc(C(F)(F)F)nc2Nc2cc(Cl)ccc2C)cc(OC)c1OC
growth at 10 µM [1]: 94%

O=C(N/N=C/c1c(Cl)cccc1Cl)c1cccnc1Nc1cccc(C(F)(F)F)c1
growth at 10 µM [1]: 37.8% | TGI [2]: 39.8 µM

O=C(O)CCCc1ccc(N(CCCl)CCCl)cc1 [CHLORAMBUCIL]
TGI [2]: 35.5 µM

Reference: ChEMBL document CHEMBL1152547, “Synthesis and evaluation of anticancer activity of 2-arylamino-6-trifluoromethyl-3-(hydrazonocarbonyl)pyridines” (Bioorg Med Chem, 2009)
